Source: PMC12072147, “Antioxidant and Neuroprotective Properties of Selected Pyrrole-Containing Azomethine Compounds in Neurotoxicity Models In Vitro” (International Journal of Molecular Sciences, 2025)

Columns and labels:
SH-SY5Y cells [1] = assay: In vitro cytotoxicity in neuroblastoma cell line SH-SY5Y (MTT); type: cell-based; conditions: Homo sapiens, 24 h treatment, 0.1-500 µM, read-out: IC50 (cell viability)
Protocol: (§1) The neuroblastoma cell line SH-SY5Y was acquired from Sigma-Aldrich (ACACC cell lines). They were cultured in Roswell Park Memorial Institute 1640 (RPMI) cell medium supplemented with 10% heat-inactivated fetal bovine serum (FBS) and 2 mM L-glutamine. The cells were maintained at 37 °C in an atmosphere containing 5% CO2 in a humidified incubator.
SH-SY5Y cells were seeded in 96-well plates at a density of 2.5 × 10^4 cells/well. The plates were incubated for 24 h to ensure proper attachment. Cell viability assays were performed after treatment with the test compounds at concentrations of 0.1, 1, 5, 10, 50, 100, 250, and 500 μM, according to the protocol of Mosmann (1984). Each compound was tested in 6 wells. Following the treatment for 24 h, a solution of (3-(4,5-dimethylthiazol-2-yl)-2,5-diphenyltetrazolium bromide) MTT at a concentration of 5 mg/mL was prepared and briefly vortexed. The culture medium was aspirated and replaced with 100 μL of MTT solution in each well. The plates were then incubated for 3 h. After incubation, the formazan crystals were dissolved using 100 μL dimethylsulphoxide (DMSO), and the absorbance was measured at 570 nm (690 nm for the background absorbance) using a multiple reader Synergy 2 (BioTek Instruments, Inc., Highland Park, Winooski, VT, USA).

[2] = system: isolated rat brain synaptosomes; assay: 6-OHDA-induced neurotoxicity in isolated rat brain synaptosomes; type: cell-based; conditions: for preserved GSH levels in synaptosomes / viability at 100 µM: 100 µM compound + 150 µM 6-OHDA; for preserved GSH levels in synaptosomes: compared to the 6-OHDA group; for viability at 100 µM: Rattus norvegicus, compared to 6-OHDA alone, read-out: preserved synaptosomal viability
Protocol: Synaptosomes and mitochondria were isolated by subcellular fractionation using a Percoll gradient, following the method described by Tauplin et al. and Sims et al.. Brain homogenate was prepared and centrifuged at 1000× g for 5 min at 4 °C. The supernatants were collected and centrifuged again at 1000× g for 5 min at 4 °C. The supernatants from both centrifugations were combined and distributed into four tubes. These tubes were then centrifuged at 10,000× g for 20 min at 4 °C three times. The final two centrifugations were performed to purify the synaptosomes and mitochondria.
The isolation process involves using a colloidal silicon solution, specifically Percoll. First, a 90% stock solution of Percoll is prepared. Next, Percoll solutions at concentrations of 16% and 10% are prepared, with 4 mL of each solution placed into six separate test tubes. To the precipitate from the final centrifugation step, 7.5% Percoll (derived from the 90% stock solution) is added. The tubes are then centrifuged at 15,000× g for 20 min at 4 °C. This procedure effectively isolates synaptosomes and mitochondria. After centrifugation, three distinct layers form in the tubes. The bottom layer contains mitochondria, the top layer contains lipids, and the middle layer—located at the 16% to 10% Percoll interface—contains synaptosomes. The corresponding layer from each tube is carefully removed using a glass Pasteur pipette and combined into one. Buffer B with glucose is then added to the mixture, which is centrifuged at 10,000 × g for 20 min at 4 °C, allowing the isolation buffer to be exchanged with the incubation buffer. After centrifugation, the pellet containing the synaptosomes is resuspended in Buffer B with glucose. Synaptosomes and mitochondria were incubated with the test substances at a concentration of 100 µM for 1 h.
This in vitro model mimics the neurodegenerative processes primarily observed in Parkinson’s disease (PD). The metabolism of 6-OHDA produces reactive quinones (p-quinone), which, in turn, generate reactive oxygen species (ROS). These reactive metabolites and ROS cause damage to both pre- and post-synaptic membranes, ultimately leading to neuronal cell damage. In this study, synaptosomes were incubated with 6-OHDA (150 μM) for 1 h to establish the model.
After a 1-h incubation with the substances and toxic agent, synaptosomes were centrifuged in a microcentrifuge at 15,000× g for 1 min. The pellet was gently mixed with Buffer B + glucose, and the supernatant containing 6-OHDA was discarded to prevent oxidation of 3-(4,5-dimethylthiazol-2-yl)-2,5-diphenyltetrazolium bromide, a tetrazole (MTT). The synaptosomes were centrifuged again at 15,000× g for 1 min. After the second wash, Buffer B + glucose was added to the pellet. Then, 60 µL of MTT solution was added to the “washed” synaptosomes. The plates were incubated with the MTT solution at 37 °C for 10 min. After incubation, the samples were centrifuged at 15,000× g for 2 min. The excess liquid was removed, and a DMSO solution was used to dissolve the formed formazan crystals. The amount of formazan was then measured spectrophotometrically at λ = 580 nm.
Following protein precipitation with trichloroacetic acid, the thiol groups in the supernatant were measured using DTNB, which produces a yellow-colored compound that absorbs light at λ = 412 nm. After incubation, synaptosomes were centrifuged at 4000× g for 3 min. The supernatant was removed, and the pellet was collected for GSH determination. The pellet was treated with 5% trichloroacetic acid and left on ice for 10 min. It was then centrifuged at 8000× g for 10 min at 2 °C. The supernatant was collected for GSH determination and frozen at −20 °C. Immediately before measurement, the samples were neutralized with 5N NaOH [50].

[3] = system: isolated rat brain microsomes; assay: In vitro toxicity (prooxidant effect, MDA) on isolated rat brain microsomes; type: biochemical; conditions: 100 µM, vs untreated control microsomes
Protocol: (§2) The brain was homogenized in 9 volumes of 0.1 M Tris buffer containing 0.1 mM dithiothreitol, 0.1 mM phenylmethylsulfonyl fluoride, 0.2 mM EDTA, 1.15% KCl, and 20% (v/v) glycerol (pH 7.4). The resulting homogenate was centrifuged twice at 17,000× g for 30 min. The supernatants from both centrifugation steps were combined and centrifuged twice at 100,000× g for 1 h. The pellet was then frozen in 0.1 M Tris buffer.
(§3) After incubating the microsomes with the substances and toxic agent, the reaction was stopped by adding 0.5 mL of 20% trichloroacetic acid, followed by 0.5 mL of 0.67% thiobarbituric acid. The reaction formed a colored complex between the malondialdehyde produced and thiobarbituric acid. The amount of malondialdehyde (MDA) was measured spectrophotometrically at 535 nm, using a molar extinction coefficient of 1.56 × 10^5 M^−1 cm^−1 for the calculation.

[4] = system: isolated rat brain microsomes; assay: Non-enzyme (Fe2+/AA) lipid peroxidation in isolated rat brain microsomes; type: biochemical; conditions: 100 µM compound co-incubated with Fe2+/AA, compared to the Fe2+/AA group
Protocol: as §2
Non-enzyme-induced lipid peroxidation was induced with 20 μM ferrous sulfate solution and 0.5 mM ascorbic acid solution [54].
as §3

SH-SY5Y cells [5] = assay: H2O2-induced oxidative stress model in neuroblastoma SH-SY5Y cells; type: cell-based, human; conditions: H2O2 1 mM 10 min
Protocol: as §1
In the oxidative stress model, SH-SY5Y cells (3.5 × 10^4 cells/well) were exposed to 1 mM H2O2 for 10 min. The cells were pre-treated for 1.5 h with the test compounds (0.1, 1, 5, 10, 20, and 50 µM). Subsequently, a H2O2 solution was added. Cell viability was assessed after 24 h by the MTT-dye reduction assay, as described above.
The results of the experiments performed on isolated brain synaptosomes, mitochondria, and microsomes were statistically processed using the ‘MEDCALC’ program using the non-parametric Mann–Whitney method at significance levels of p < 0.05, p < 0.01, and p < 0.001. Statistical analyses with the SH-SY5Y cell line were conducted on GraphPad Prism software (version 8, GraphPad Software, La Jolla, CA, USA). The significance of the data was assessed using one-way analysis of variance (ANOVA), followed by Dunnet’s test for post hoc multiple comparisons, to evaluate statistical differences. Values of * p ≤ 0.05, ** p ≤ 0.01, and *** p ≤ 0.001 were considered statistically significant. Cytoprotecting data were normalized as a percentage of the H2O2-treated control (defined as 0% viability). Statistical analysis was performed to compare the different groups of compounds. Statistical significance was determined using the Holm–Sidak method, with alpha = 0.05. Each row was analyzed individually, without assuming a consistent SD.

[6] = system: isolated brain mitochondria; assay: t-BuOOH-induced oxidative stress in brain mitochondria; conditions: 100 µM compound + t-BuOOH, compared to t-BuOOH alone
[7] = 150 µM applied alone, vs untreated synaptosomes

SMILES	decrease of MDA production in microsomes [4] [%]	IC50 (SH-SY5Y cells [1]) [µM]	preserved GSH levels in synaptosomes [2] [%]	viability at 100 µM [2] [%]	increase in MDA formation in microsomes [3] [%]	protective effect (neuroprotection) (SH-SY5Y cells [5]; 5 µM pre-treatment 1.5 h) [%]	protective effect (neuroprotection) (SH-SY5Y cells [5]; 10 µM pre-treatment 1.5 h) [%]	protective effect (neuroprotection) (SH-SY5Y cells [5]; 20 µM pre-treatment 1.5 h) [%]	protective effect (neuroprotection) (SH-SY5Y cells [5]; 50 µM pre-treatment 1.5 h) [%]	decrease in synaptosomal viability by toxic agent alone [2, 7] [%]	reduction in GSH levels by toxic agent alone [2, 7] [%]	reduction of MDA production in mitochondria [6] [%]
CCOC(=O)c1cc(-c2ccc(Br)cc2)n(C(Cc2c[nH]c3ccccc23)C(=O)N/N=C/c2ccc(NC(C)=O)cc2)c1C (centres unmarked) [compound 9]	26	> 500	60	78	38	47	52					
CCOC(=O)c1cc(-c2ccc(Br)cc2)n(C(Cc2c[nH]c3ccccc23)C(=O)N/N=C/c2cc(OC)c(O)c(OC)c2)c1C (centres unmarked) [compound 7]	38	> 500	70	73	29							
NCCc1cc(O)c(O)cc1O [6-OHDA, 6-hydroxydopamine, reference compound]										55	50	
CCOC(=O)c1cc(-c2ccc(Br)cc2)n(C(Cc2c[nH]c3ccccc23)C(=O)N/N=C/c2ccc([N+](=O)[O-])o2)c1C (centres unmarked) [compound 11]	35	264	60	69	41							41

The next lines start with results.

decrease of MDA production in microsomes [4] [%]	SMILES	IC50 (SH-SY5Y cells [1]) [µM]	preserved GSH levels in synaptosomes [2] [%]	viability at 100 µM [2] [%]	increase in MDA formation in microsomes [3] [%]	protective effect (neuroprotection) (SH-SY5Y cells [5]; 5 µM pre-treatment 1.5 h) [%]	protective effect (neuroprotection) (SH-SY5Y cells [5]; 10 µM pre-treatment 1.5 h) [%]	protective effect (neuroprotection) (SH-SY5Y cells [5]; 20 µM pre-treatment 1.5 h) [%]	protective effect (neuroprotection) (SH-SY5Y cells [5]; 50 µM pre-treatment 1.5 h) [%]	decrease in synaptosomal viability by toxic agent alone [2, 7] [%]	reduction in GSH levels by toxic agent alone [2, 7] [%]	reduction of MDA production in mitochondria [6] [%]
37	CCOC(=O)c1cc(-c2ccc(Br)cc2)n(C(Cc2c[nH]c3ccccc23)C(=O)N/N=C/c2ccc3ccccc3c2)c1C (centres unmarked) [compound 14]	> 500	70	60	39	33	51					
40	CCOC(=O)c1cc(-c2ccc(Br)cc2)n(C(Cc2c[nH]c3ccccc23)C(=O)N/N=C/c2ccccc2O)c1C (centres unmarked) [compound 12]	> 500	80	82	35	48	53	50	32			
36	CCOC(=O)c1cc(-c2ccc(Br)cc2)n(C(Cc2c[nH]c3ccccc23)C(=O)N/N=C/c2c3ccccc3cc3ccccc23)c1C (centres unmarked) [compound 15]	> 500	70	64	40							
